Results on two compounds are retold here after article PMC8066102, “Metabolic Profiles of New Unsymmetrical Bisacridine Antitumor Agents in Electrochemical and Enzymatic Noncellular Systems and in Tumor Cells” (Pharmaceuticals, 2021).

For one data set, the system named is HCT-116-UGT1A10 cells. Put plainly: Drug metabolism in HCT-116 cells transfected with UGT1A10. The conditions noted are these: HCT-116 overexpressing UGT1A10, 50 μM, medium and cell extract, 24 and 72 h. The data set is classed as cell-based, human. Here is the method:
To analyze the transformation products of UAs in colon tumor cell lines, HCT-116 or HT-29 cells were plated in 60 mm Petri dishes; after reaching 80% of confluence, cells were treated with 5/25/50 μM of C-2028, C-2045 or C-2053 (prepared as 10 or 2 mM stock solutions in water) for specified time. Half of medium was added to acetonitrile (1:1, v/v), centrifuged (12 min, 13,400 rpm, 4 °C) and the supernatant was analyzed by HPLC (post-culture medium). Cells remaining on the Petri dishes were collected by gentle scraping, sedimented, washed with ice-cold PBS, suspended in ice-cold chloroform and lysed by sonication for 15 min. After 1 h on ice, insoluble material was removed by centrifugation at 13,000 rpm for 20 min at 4 °C. The sediment was discarded and supernatant (chloroform) were evaporated under pressure. Then, sample was suspended in ice-cold 60% methanol and directly analyzed by HPLC (cell extract).

The target in another data set is T1, UGT2B7 (Homo sapiens, UniProt P16662).
T1 construct: purchased Corning, NY, USA (through DIAG-MED, Poland); host or cells: baculovirus-insect cells (Supersomes)
T1 sequence (P16662 24-529): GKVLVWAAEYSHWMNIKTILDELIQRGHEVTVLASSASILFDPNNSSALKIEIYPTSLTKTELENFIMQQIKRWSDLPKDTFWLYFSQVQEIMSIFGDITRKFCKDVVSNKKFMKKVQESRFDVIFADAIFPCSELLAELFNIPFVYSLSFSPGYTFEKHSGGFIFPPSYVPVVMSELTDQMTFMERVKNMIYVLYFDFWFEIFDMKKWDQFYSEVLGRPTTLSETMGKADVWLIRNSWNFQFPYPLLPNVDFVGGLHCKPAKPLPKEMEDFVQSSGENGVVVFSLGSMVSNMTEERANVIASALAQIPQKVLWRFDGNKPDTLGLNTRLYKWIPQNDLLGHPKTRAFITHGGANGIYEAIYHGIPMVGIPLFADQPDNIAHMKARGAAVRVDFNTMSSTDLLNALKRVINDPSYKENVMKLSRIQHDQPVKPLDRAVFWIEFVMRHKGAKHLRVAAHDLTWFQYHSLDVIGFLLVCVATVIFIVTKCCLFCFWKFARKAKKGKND
Description: Modulation of UGT2B7 activity (epirubicin glucuronidation). The conditions noted are these: epirubicin substrate. The class given is in vitro ADME. Here is the method: (§1) Isoenzyme activity was studied by the rate measurement of β-hydroxylation of testosterone (specific substrate for P4503A4) and of glucuronidation of specific substrates, namely, SN-38 (UGT1A1), EPI (UGT2B7),) and TFK (UGT2B15). All substrate and drug solutions were prepared as 10 mM stock solutions in DMSO and were diluted in […] (pH 7.4). The mixture containing isoenzymes P4503A4/UGT (0.5 mg/mL), probe substrate (0.1 mM), cofactor 2 mM NADPH/5 mM UDPGA and the increasing concentrations of tested UA (0, 0.01, 0.02 and 0.05 mM) was incubated in the reaction buffer containing (i) for P4503A4 0.1 M HEPES, 88 mM MgCl2 and (ii) for UGT 0.1 M HEPES, 88 mM MgCl2, 25 μg/mL alamethicin at 37 °C for 30 min and were terminated by adding 8.75 µL of 0.1 M HCl. The samples were placed in ice for 10 min and centrifuged (10 min, 13,400 rpm). Supernatant fractions were analyzed by HPLC. For more accurate investigation of P4503A4 inhibition by C-2045 and C-2053 the β-hydroxylation rate was measured at various concentrations of testosterone: 0.02, 0.05, 0.1 and 0.2 mM. The inhibitor (UA) concentrations were 0, 0.001, 0.005 and 0.01 mM, whereas the incubation time 30 min and concentration of P4503A4 (0.5 mg/mL).

The target in another data set is T2, UGT2B15 (Homo sapiens, UniProt P54855).
T2 construct: purchased Corning, NY, USA (through DIAG-MED, Poland); host or cells: baculovirus-insect cells (Supersomes)
T2 sequence (P54855 24-530): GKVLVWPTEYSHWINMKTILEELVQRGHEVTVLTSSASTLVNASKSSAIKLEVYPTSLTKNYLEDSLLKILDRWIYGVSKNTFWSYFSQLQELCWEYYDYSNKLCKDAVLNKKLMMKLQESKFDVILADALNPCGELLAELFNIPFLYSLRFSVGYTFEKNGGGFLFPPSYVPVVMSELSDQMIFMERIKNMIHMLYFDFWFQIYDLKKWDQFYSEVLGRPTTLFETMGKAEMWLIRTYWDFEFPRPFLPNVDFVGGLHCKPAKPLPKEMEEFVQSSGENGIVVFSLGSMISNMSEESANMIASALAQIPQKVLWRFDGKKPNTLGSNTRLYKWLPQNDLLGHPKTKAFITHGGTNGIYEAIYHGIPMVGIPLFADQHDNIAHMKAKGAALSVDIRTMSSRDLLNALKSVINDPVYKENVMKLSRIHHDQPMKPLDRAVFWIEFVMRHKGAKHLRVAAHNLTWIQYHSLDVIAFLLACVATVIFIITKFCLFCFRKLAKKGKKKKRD
Description: Modulation of UGT2B15 activity (TFK glucuronidation). The data set is classed as in vitro ADME. The conditions noted are these: UGT2B15 isoenzyme preparation, pH 7.4, probe TFK, TFK substrate. Here is the method: as §1

In a further data set the target is T3, UGT1A1 (Homo sapiens, UniProt P22309).
T3 sequence (P22309 26-533): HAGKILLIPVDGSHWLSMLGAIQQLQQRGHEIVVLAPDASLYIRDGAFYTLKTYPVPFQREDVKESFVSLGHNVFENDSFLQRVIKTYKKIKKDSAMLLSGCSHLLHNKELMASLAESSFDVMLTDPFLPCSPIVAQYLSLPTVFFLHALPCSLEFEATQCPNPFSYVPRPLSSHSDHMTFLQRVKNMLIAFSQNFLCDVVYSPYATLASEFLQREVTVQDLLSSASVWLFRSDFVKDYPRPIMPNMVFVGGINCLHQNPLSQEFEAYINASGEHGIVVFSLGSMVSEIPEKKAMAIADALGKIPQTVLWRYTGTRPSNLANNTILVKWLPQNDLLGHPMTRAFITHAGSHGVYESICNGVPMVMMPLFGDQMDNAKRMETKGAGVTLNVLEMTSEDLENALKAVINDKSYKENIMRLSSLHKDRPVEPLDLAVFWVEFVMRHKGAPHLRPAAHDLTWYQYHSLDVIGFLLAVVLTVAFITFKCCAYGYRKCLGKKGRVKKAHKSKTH
Put plainly: Modulation of UGT1A1 activity (SN-38 glucuronidation). The data set is classed as in vitro ADME. Also noted: purchased Corning, NY, USA (through DIAG-MED, Poland); host or cells: baculovirus-insect cells (Supersomes). The settings on record: SN-38 substrate. Here is the method: as §1

As to `Cc1ccc([N+](=O)[O-])c2c(NCCCN(C)CCCNc3ccc4ncn5c6ccc(O)cc6c(=O)c3c45)c3ccccc3nc12` [C-2045], the “metabolite formation in cells” value in the data set with HCT-116-UGT1A10 cells is reported as “metabolized the substrate to the derivative, which was found in the cell medium rather than in the cell extract”.

Consider `CN(CCCNc1c2ccccc2nc2cccc([N+](=O)[O-])c12)CCCNc1ccc2ncn3c4ccccc4c(=O)c1c23` [C-2028], for which the “decrease in the activity of UGT2B7” value at UGT2B7 (0.01 mM and 0.02 mM compound) came out at 60%. For the same compound, the inhibition (usually the change of the read-out against control, counted positive when it falls) at 30 min, 0.05 mM at UGT2B7 (human, UGT2B7 isoenzyme preparation, pH 7.4, probe epirubicin (EPI), 0.05 mM compound) came to 90%; against UGT2B15 (highest concentration), 80%. Besides, the inhibition at 30 min on UGT2B15 (lowest concentrations) was roughly 30%; at UGT1A1 (human, UGT1A1 isoenzyme preparation, pH 7.4, probe SN-38, higher concentrations of compound, read-out: inhibition rate of UGT1A1), 65 to 70%. In addition, at UGT1A1 (low concentrations of compound), the “activity decrease of UGT1A1” value came to 77%.
